From patent publication US20100112037A1, “S1P RECEPTOR AGONISTS FOR THE TREATMENT OF CEREBRAL MALARIA” (priority 2008, published 2010) come the findings set out here.

Assay [1] can be described thus: Topical and transdermal administration: blood cell counts (CBC). Format: in vivo, F1 hybrid mice. Particulars: topical (200 μL of 1 mg/mL solution) and transdermal patch; measured six hours after administration; FIG. 2. On the procedure:
Drug-in-adhesive transdermal patches containing FTY720 were made by dissolving FTY720 in adhesive (Duro-Tak 87-2196, National Starch & Chemical Co.) at a ratio of 1 part compound to 10 parts adhesive (weight:weight). Adhesive containing FTY720 was layered onto a release liner (Scotchpak 1022 PET Film, 3M Corporation) using a Bird applicator with a 50 to 200 micron gap. Organic solvents were removed from the film by baking at 100° C. for 15 minutes. The dried adhesive was then laminated onto a backing membrane (CoTran 9720 polyethylene film, 3M Corporation).
Topical and transdermal dosage forms of FTY720 were administered to F1 hybrid mice (n=5 mice per group). The blood of the mice was collected at various time points for CBC and PK analysis.
Topical dosing of FTY720 was achieved using 200 μL of a 1 mg/mL solution composed of 70% ethanol, 29.9% water, and 0.1% DMSO.
Transdermal dosing was achieved using patches made as described above. Patches were cut from the laminate and applied to bare skin above the front shoulder of the mice. Dosage was controlled by adjusting the thickness of the compound/adhesive applied to the release liner and number or size of patches. Fur was trimmed from the site of application and then shaved to expose bare skin. To improve adhesion, the skin was further prepped by swabbing with 70% ethanol and then allowed to air dry prior to placing the patch.

The test system of a further assay is P. berghei ANKA. The assay is described as follows: Cerebral malaria model (survival of infected mice). The class given is in vivo, C56B1/6 mice. Particulars: FTY720 0.3 mg/kg/day by gavage, administered one day prior to malaria infection; vs control; two independent experiments, Log-Rank Test, p=0.0002; FIG. 1. On the procedure:
A well characterized and widely used animal model of CM was used to test the efficacy of compounds. See, e.g., Golenser, supra, at 585. In each experiment, two groups of C56B1/6 mice were infected with 1 million parasites (P. berghei ANKA) i.p. in 500 μl of media. The first group was the control group, and the second was treated daily by gavage with FTY720 (0.3 mg/kg/day).
After at least two doses of the drug had been administered, tail vein blood was taken from the mice, and flow cytometry analysis was used to assess the levels of B and T cells, using antibodies to CD3, CD4, CD8 and CD19. The animals were monitored daily for body weight and parasitaemia, and twice daily for survival.

As for `CCCCCCCCc1ccc(CCC(N)(CO)CO)cc1` [FTY720, 2-amino-2-[2-(4-octylphenyl)ethyl]propane-1,3-diol], in assay [1], the lymphocyte count entry was “affected”, the neutrophil count result was “affected” and the “white blood cell count” value is listed as “affected”. In the assay on P. berghei ANKA, the survival entry was “significant survival advantage”.
